Consider 35 molecules from patent US20250115558A1, “PYRIDAZINE DERIVATIVES AND RELATED USES” (NodThera Limited, priority 2023, published 2025).

Structures can show the parent of a compound that is named as a salt.

For one experiment, the system named is THP-1. Put plainly: THP-1 IC50 assay. The class given is cell-based. Conditions: Homo sapiens; THP-1 cells.
The test system of experiment [1] is IL-1β release upon NLRP3 activation in peripheral blood mononuclear cells (PBMC). Kind of experiment: PBMC IC50 Determination Assay. The class given is cell-based. Conditions: Homo sapiens; inhibition of IL-1β release; LPS-primed PBMC stimulated with ATP or nigericin. The procedure:
The compounds of the present disclosure were tested for their inhibitory activity against IL-1β release upon NLRP3 activation in peripheral blood mononuclear cells (PBMC).
Protocol A. PBMC were isolated from buffy coats by density gradient centrifugation on Histopaque-1077 (Sigma, cat no. 10771). Isolated cells were seeded into the wells of a 96-well plate and incubated for 3 h with lipopolysaccharide (LPS). Following medium exchange, the compounds of the present disclosure were added (a single compound per well) and the cells were incubated for 30 min. Next, the cells were stimulated either with ATP (5 mM) or nigericin (10 μM) for 1 h and the cell culture media from the wells were collected for further analysis.
The release of IL-1β into the media was determined by a quantitative detection of IL-1β in the media using an IL-1β enzyme-linked immunosorbent assay (ELISA) Ready-SET-Go!, eBioscience cat. No. 88-7261-88. Briefly, in a first step, high affinity binding plates (Corning, Costar 9018 or NUNC Maxisorp Cat No. 44-2404) were coated overnight at 4° C. with specific capture antibody included in the kit (anti-human IL-1β ref. 14-7018-68). Subsequently, plates were blocked with blocking buffer for 1 h at room temperature (rt) and after washing with a buffer (PBS with 0.05% Tween-20) incubated with protein standard and culture media. After 2 h of incubation at rt, plates were washed and incubated with biotinylated detection antibody included in the kit (anti-human IL-1β Biotin ref. 33-7110-68) for 1 h at rt. Plates were washed and incubated with HRP-streptavidin for 30 min at rt and washed again. The signal was developed after addition of 3,3′,5,5′-tetramethylbenzidine-peroxidase (TMB) until colour appeared and the reaction was stopped by 2 M H2SO4. A microplate spectrophotometer (BioTek) was used to detect signals with 450 nm. The detection range of IL-1β ELISA was […].
Protocol B. PBMC were isolated from buffy coats by density gradient centrifugation on Histopaque-1077 (Sigma, cat no. 10771). Isolated cells were seeded into the wells (280,000 cells/well) of a 96-well plate and incubated for 3 h with lipopolysaccharide (LPS, 1 μg/mL diluted 1000× from a 1 mg/mL stock solution). The compounds of the present disclosure were added (a single compound per well) and the cells were incubated for 30 min. Next, the cells were stimulated with ATP (5 mM final concentration diluted 20× from a 100 mM stock solution) for 1 h and the cell culture media from the wells were collected for further analysis.
The release of IL-1β into the media was determined by quantitative detection of IL-1β in the media using HTRF®, CisBio cat. No. 62HIL1BPEH. Briefly, cell culture supernatant were dispensed directly into the assay plate containing antibodies labelled with the HTRF® donor and acceptor. A microplate spectrophotometer (BMG) was used to detect signals at 655 nm and 620 nm. The detection range of IL-1β HTRF® was 39-6500 μg/mL.

Take `Cc1cc(C(F)(F)F)cc(O)c1-c1ccc(CNc2cncnc2)nn1` [Compound 26]: the values for the IC50 (with THP-1; in experiment [1]) were 1000 to 3000 nM and 500 to 1000 nM, respectively.

Consider `Cc1cc(C(F)(F)F)cc(O)c1-c1ccc(CNCc2ccnn2C)nn1` [Compound 126], for which the IC50 (with THP-1; in experiment [1]) was 1000 to 3000 nM each time.

On to `Cc1cnc(NCc2ccc(-c3c(C)cc(C(F)(F)F)cc3O)nn2)o1` [Compound 148], for which, in the experiment with THP-1, the IC50 (as a rule, the point on the concentration scale where inhibition reaches its midpoint) fell in the range of 1000 to 3000 nM.

Regarding `Cc1cc(C(F)(F)F)cc(O)c1-c1ccc(CNc2nccn2C)nn1` [Compound 82, 3-Methyl-2-(6-{[(1-methyl-1H-imidazol-2-yl)amino]methyl}pyridazin-3-yl)-5-(trifluoromethyl)phenol hydrochloride], the results for the IC50 (in the experiment on THP-1; in experiment [1]) were 1000 to 3000 nM and 500 to 1000 nM, respectively.

For `Cc1cc(C(F)(F)F)cc(O)c1-c1ccc(CNC2CN3CCC2CC3)nn1` (centres unmarked) [Compound 154], the IC50 (in the experiment on THP-1; in experiment [1]) was no less than 10000 nM throughout.

Turning to `Cc1cc(C(F)(F)F)cc(O)c1-c1ccc(CNCC2COC2)nn1` [Compound 104], the IC50 (in the experiment on THP-1; in experiment [1]) was 1000 to 3000 nM throughout.

Consider `COCCNCc1ccc(-c2c(C)cc(C(F)(F)F)cc2O)nn1` [Compound 115], for which the IC50 (in the experiment with THP-1; in experiment [1]) was 1000 to 3000 nM throughout.

As to `Cc1cc(C(F)(F)F)cc(O)c1-c1ccc(CN2CCCC2)nn1` [Compound 133], the IC50 with THP-1 is 500 to 1000 nM; in experiment [1] it was less than 500 nM.

As for `Cc1cc(C(F)(F)F)cc(O)c1-c1ccc(CNc2conc2C)nn1` [Compound 55, 3-Methyl-2-(6-(((3-methylisoxazol-4-yl)amino)methyl)pyridazin-3-yl)-5-(trifluoromethyl)phenol], the IC50 (with THP-1; in experiment [1]) was 500 to 1000 nM in each case.

On to `Cc1cc(C(F)(F)F)cc(O)c1-c1ccc(CNc2cscn2)nn1` [Compound 28], for which the IC50 (in the experiment with THP-1; in experiment [1]) was 500 to 1000 nM each time.

Take `Cc1cc(C(F)(F)F)cc(O)c1-c1ccc(CN[C@H]2CC(=O)N(C)C2)nn1` [Compound 49, (S)-4-(((6-(2-Hydroxy-6-methyl-4-(trifluoromethyl)phenyl)pyridazin-3-yl)methyl)amino)-1-methylpyrrolidin-2-one]: the IC50 (with THP-1; in experiment [1]) was less than 500 nM in each case.

Consider `Cc1cc(OC(F)F)cc(O)c1-c1ccc(CNC2CCOCC2)nn1` [Compound 70, 5-(Difluoromethoxy)-3-methyl-2-(6-(((tetrahydro-2H-pyran-4-yl)amino)methyl)pyridazin-3-yl)phenol], for which the IC50 (with THP-1; in experiment [1]) was 1000 to 3000 nM each time.

With `Cc1cc(Cl)cc(O)c1-c1ccc(CN[C@@H]2CCOC2)nn1` [Compound 53, (R)-5-Chloro-3-methyl-2-(6-(((tetrahydrofuran-3-yl)amino)methyl)pyridazin-3-yl)phenol], the IC50 (in the experiment with THP-1; in experiment [1]) was less than 500 nM in each case.

With `Cc1cc(C(F)(F)F)cc(O)c1-c1ccc(CNc2cnoc2)nn1` [Compound 124], the IC50 (in the experiment on THP-1; in experiment [1]) was less than 500 nM each time.

For the molecule `Cc1cc(C(F)(F)F)cc(O)c1-c1ccc(CNC2CC(=O)N(C)C2=O)nn1` (centres unmarked) [Compound 114], the IC50 in the experiment on THP-1 was 500 to 1000 nM; in experiment [1], less than 500 nM.

With `Cc1cc(C(F)(F)F)cc(O)c1-c1ccc(CN2CCC(F)(F)C2)nn1` [Compound 38, 2-(6-((3,3-Difluoropyrrolidin-1-yl)methyl)pyridazin-3-yl)-3-methyl-5-(trifluoromethyl)phenol], the IC50 is 500 to 1000 nM in the experiment with THP-1 and less than 500 nM in experiment [1].

Regarding `Cc1cc(C(F)(F)F)cc(O)c1-c1ccc(CNCC2CCOC2)nn1` (centres unmarked) [Compound 105], the values for the IC50 (in the experiment with THP-1; in experiment [1]) were 3000 to 10000 nM and 1000 to 3000 nM, respectively.

As for `Cc1cc(C(F)(F)F)cc(O)c1-c1ccc(COC2CCNCC2)nn1` [Compound 19, 3-Methyl-2-(6-((piperidin-4-yloxy)methyl)pyridazin-3-yl)-5-(trifluoromethyl)phenol], the IC50 (in the experiment on THP-1; in experiment [1]) was 1000 to 3000 nM throughout.

Consider `Cc1cc(CNC2CCOCC2)nnc1-c1c(C)cc(C(F)(F)F)cc1O` [Compound 10, 3-Methyl-2-(4-methyl-6-(((tetrahydro-2H-pyran-4-yl)amino)methyl)pyridazin-3-yl)-5-(trifluoromethyl)phenol], for which the IC50 (in the experiment on THP-1; in experiment [1]) was 1000 to 3000 nM each time.

In the case of `CO[C@@H]1CCN(Cc2ccc(-c3c(C)cc(C(F)(F)F)cc3O)nn2)C1` [Compound 39, (R)-2-(6-((3-Methoxypyrrolidin-1-yl)methyl)pyridazin-3-yl)-3-methyl-5-(trifluoromethyl)phenol], the IC50 in the experiment with THP-1 lay in the range of 1000 to 3000 nM; in experiment [1], 500 to 1000 nM.

As for `Cc1cc(C(F)(F)F)cc(O)c1-c1ccc(CN(C)C2CCOCC2)nn1` [Compound 129], the IC50 (with THP-1; in experiment [1]) was 1000 to 3000 nM in each case.

As for `Cc1cc(C(F)(F)F)cc(O)c1-c1ccc(CN2CCN(C)C(=O)C2)nn1` [Compound 132], the IC50 (in the experiment on THP-1; in experiment [1]) was 1000 to 3000 nM in each case.

On to `Cc1cc(C(F)(F)F)cc(O)c1-c1ccc(CN2CCCCC2)nn1` [Compound 135], for which the IC50 (in the experiment on THP-1; in experiment [1]) was less than 500 nM throughout.

On to `Cc1cc(C(F)(F)F)cc(O)c1-c1ccc(CNCc2ccccc2)nn1` [Compound 138], for which the IC50 with THP-1 was in the range of 1000 to 3000 nM; in experiment [1], 500 to 1000 nM.

With `Cc1cc(-c2ccc(CNC3CCOCC3)nn2)c(O)cc1C(F)(F)F` [Compound 15, 4-Methyl-2-(6-(((tetrahydro-2H-pyran-4-yl)amino)methyl)pyridazin-3-yl)-5-(trifluoromethyl)phenol], the IC50 (with THP-1; in experiment [1]) was no less than 10000 nM in each case.

With `CC(=O)N1CCC(NCc2ccc(-c3c(C)cc(C(F)(F)F)cc3O)nn2)C1` (centres unmarked) [Compound 24], the IC50 was 500 to 1000 nM in the experiment with THP-1 and less than 500 nM in experiment [1].

Consider `Cc1cc(Cl)cc(O)c1-c1ccc(CNC2CCOCC2)nn1` [Compound 12, 5-Chloro-3-methyl-2-(6-(((tetrahydro-2H-pyran-4-yl)amino)methyl)pyridazin-3-yl)phenol], for which the IC50 (in the experiment with THP-1; in experiment [1]) was less than 500 nM each time.

For `Cc1cc(C(F)(F)F)cc(O)c1-c1ccc(CNc2ccn(C)n2)nn1` [Compound 122], the half-inhibitory concentration (IC50) is 500 to 1000 nM with THP-1 and less than 500 nM in experiment [1].

Turning to `Cc1cc(C(F)(F)F)cc(O)c1-c1ccc(CN[C@H]2CCC(=O)N(C)C2)nn1` [Compound 88], the IC50 (in the experiment on THP-1; in experiment [1]) was less than 500 nM each time.

For the molecule `Cc1cc(C(F)(F)F)cc(O)c1-c1ccc(Cn2ccc(=N)nc2)nn1` [Compound 120], the IC50 in the experiment with THP-1 is 3000 to 10000 nM; in experiment [1] it was no less than 10000 nM.

With `Cc1cc(C(F)(F)F)cc(O)c1-c1ccc(CNC2CCOC2)nn1` (centres unmarked) [Compound 103], the IC50 (with THP-1; in experiment [1]) was less than 500 nM each time.

For the molecule `Cc1cc(C(F)(F)F)cc(O)c1-c1ccc(Cn2ccc(=N)cn2)nn1` [Compound 121], the IC50 in the experiment on THP-1 was 3000 to 10000 nM; in experiment [1] it was no less than 10000 nM.

Regarding `Cc1cc(C(F)(F)F)cc(O)c1-c1ccc(CNCC2CCCCO2)nn1` (centres unmarked) [Compound 107], the IC50 (in the experiment on THP-1; in experiment [1]) was 3000 to 10000 nM throughout.

`Cc1cc(C(F)(F)F)cc(O)c1-c1ccc(CNC2CCN(C)C2=O)nn1` (centres unmarked) [Compound 113]: the results for the IC50 (in the experiment on THP-1; in experiment [1]) were 1000 to 3000 nM and 500 to 1000 nM, respectively.

In experiment [1], `Cc1cc(C(F)(F)F)cc(O)c1-c1ccc(CNC2CC(F)(F)C2)nn1` [Compound 143] had an IC50 of less than 500 nM.
